Measurements from ChEMBL document CHEMBL1155663, “A new major triterpene saponin from the roots of Cucurbita foetidissima” (J Nat Prod, 2000).
Activity calls are given as the source filed them. The rule behind the calls is not given here.

System: HT-29
Assay: Potentiation of cisplatin-induced cytotoxicity against human HT29 cells
Format: functional, cell-based

C[C@@H]1O[C@@H](O[C@@H]2[C@@H](OC(=O)[C@]34CCC(C)(C)C[C@@H]3C3=CC[C@@H]5[C@@]6(C)CC[C@H](O[C@@H]7O[C@H](C(=O)O)[C@@H](O)[C@H](O)[C@H]7O)C(C)(C)[C@@H]6CC[C@@]5(C)[C@]3(C)C[C@H]4O)OC[C@@H](O)[C@H]2O)[C@H](O)[C@H](O[C@H]2OC[C@H](O)[C@@H](O[C@H]3O[C@@H](CO)[C@H](O)[C@@H](O)[C@@H]3O)[C@@H]2O)[C@H]1O[C@@H]1OC[C@@H](O)[C@H](O)[C@H]1O
Activity: inactive
